This note sets out measurements from patent US20090062537A1, “N-Formyl Hydrozyamine Compounds” (priority 2006, published 2009).

Assay [1] relates to Streptococcus pneumoniae PDF G70V mutant. Briefly: MIC, culture growth of S. pneumoniae PDF G70V mutant. The class given is cell-based. The conditions noted are these: PDFG70VMUTANT. How it is done: (§1) Minimum inhibitory concentrations (MICs) are determined using the microdilution method In 96-well format plates. Compounds are suspended in DMSO at 5 or 10 mg/mL and stored at 4° C. until used. They are diluted in Mueller-Hinton Broth (MHB) or Trypticase Soy Broth (TSB) and used for MIC determination. The range of concentrations tested is 64-0.0625 μg/mL final concentration using a two-fold dilution system.
(§2) The inoculum is prepared from cells grown on Trypticase Soy Agar (TSA) and incubated overnight at 35° C., 5-10 colonies are used to inoculate MHB or TSB broths, and the culture is incubated overnight at 35° C. The overnight culture is diluted 1:10, incubated for 1 hour at 35° C., diluted to the appropriate inoculum size and applied to the wells containing broth and test compound. Inoculum sizes are 2×10^4 CFU/mL.
(§3) To investigate further, the IC50s and MICs of specific pairs of compounds differing only in this feature are determined.

Assay [2] deals with T1, Streptococcus pneumoniae peptide deformylase G70D mutant (Streptococcus pneumoniae serotype 4, UniProt Q9F2F0, G70D).
T1 sequence (Q9F2F0 1-203 G70D): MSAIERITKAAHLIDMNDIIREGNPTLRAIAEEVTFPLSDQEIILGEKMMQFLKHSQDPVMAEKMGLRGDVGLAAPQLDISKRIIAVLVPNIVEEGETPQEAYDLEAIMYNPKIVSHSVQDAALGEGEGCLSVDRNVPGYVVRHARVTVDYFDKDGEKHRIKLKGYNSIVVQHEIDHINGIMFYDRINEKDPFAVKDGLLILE
The experiment in a line: Inhibition of S. pneumoniae peptide deformylase activity, G70D mutant enzyme. The class given is biochemical. The conditions noted are these: PDF G70D. How it is done:
(§4) A PDF/FDH coupled assay (Lazennec et al., Anal. Biochem., Vol. 224, pp. 180-182 (1997)) is used. In this coupled assay, the formate released by PDF from its substrate fMAS is oxidized by the coupling enzyme FDH, reducing one molecule of NAD^+ to NADH, which causes an increase in absorption at 340 nm. All assays are carried out at room temperature in a buffer of 50 mM HEPES, pH 7.2, 10 mM NaCl, 0.2 mg/mL BSA, In half-area 96-well microtiter plates (Corning). The reaction is initiated by adding a mixture of 0.5 Unit/mL FDH, 1 mM NAD^+, and fMAS at the desired concentration. To determine IC50 (the concentration needed to inhibit 50% of enzyme activity) values, PDF is pre-incubated for 10 minutes with varying concentrations of the inhibitor, and the deformylation reaction is initiated by the addition of reaction mixture containing 4 mM fMAS. The initial reaction velocity, y, is measured as the initial rate of absorption increase at […] using a SpectraMax plate reader (Molecular Devices, Sunnyvale, Calif.). The Inhibitor concentration [In] at which 50% of the enzyme activity is inhibited, IC50, is calculated using the following formula:
(§5) where yo is the reaction velocity in the absence of inhibitor. Solving this equation for IC50 at the [In] when y=yo/2 yields IC50. The IC50 is calculated based on a nonlinear least-square regression fit using a commercial software package (Deltapoint, Inc., Chicago, Ill.).
(§6) Peptide deformylase activity is essential for growth of S. pneumoniae. The mutants that are selected on NVP-LBM415 were not compromised for growth in vitro, therefore the mutations in defB that confer resistance to these compounds would not be expected to dramatically alter enzymatic activity. To test this hypothesis, the kinetics of peptide deformylase activity are determined using the substrate f-Met-Ala-Ser.
as §3

Assay [3] concerns Streptococcus pneumoniae (wild type PDF). Briefly: MIC, culture growth of S. pneumoniae with wild type PDF. The format is cell-based. Particulars: PDF W.T. How it is done: as §1, §2, §3
Assay [4] has as its target T2, Streptococcus pneumoniae peptide deformylase, wild type (W.T.) (Streptococcus pneumoniae serotype 4, UniProt Q9F2F0).
T2 sequence (Q9F2F0 1-203): T1 sequence (Q9F2F0 1-203 G70D) with D70G
Briefly: Inhibition of S. pneumoniae peptide deformylase activity, wild type enzyme. The format is biochemical. Particulars: PDF W.T. How it is done:
as §4, §5, §6, §3

Assay [5] concerns Streptococcus pneumoniae PDF G70D mutant. The experiment in a line: MIC, culture growth of S. pneumoniae PDF G70D mutant. The format is cell-based. The conditions noted are these: PDFG70DMUTANT. How it is done: as §1, §2, §3
For assay [6], the target named is T3, Streptococcus pneumoniae peptide deformylase G70V mutant (Streptococcus pneumoniae serotype 4, UniProt Q9F2F0, G70V).
T3 sequence (Q9F2F0 1-203 G70V): T1 sequence (Q9F2F0 1-203 G70D) with D70V
The experiment in a line: Inhibition of S. pneumoniae peptide deformylase activity, G70V mutant enzyme. The conditions noted are these: PDF G70V. The format is biochemical. As to the method: as §4, §5, §6, §3

Structures are written as SMILES. Numbering of substitutions follows the chain as printed. ≈ marks a conversion by molar mass, not a printed value.

As for `CCCC[C@H](CN(O)C=O)C(=O)N1C[C@@H](C(C)C)C[C@H]1C(=O)Nc1ccc(F)cn1`, the figures for the MIC in assay [1], in assay [3] and in assay [5] were 2.86 µg/mL (≈ 6.77 µM), 1.43 ± 0.2 µg/mL (≈ 3.38 µM) and 1.57 µg/mL (≈ 3.72 µM), respectively. The IC50 in assay [2] was 460 pM; in assay [4] it was 310 ± 40 pM; in assay [6], 1010 pM.

As to `O=CN(O)C[C@@H](CC1CCCC1)C(=O)N1C[C@H](F)C[C@H]1C(=O)Nc1cnccn1`, the MIC in assay [1] was 0.33 µg/mL (≈ 0.81 µM); in assay [3], 0.16 ± 0.1 µg/mL (≈ 0.393 µM); in assay [5], 0.25 µg/mL (≈ 0.614 µM). For the same compound, the figures for the IC50 in assay [2], in assay [4] and in assay [6] were 340 pM, 250 ± 40 pM and 500 pM, respectively.

For `CCCC[C@H](CN(O)C=O)C(=O)N1C[C@@H](C(C)C)C[C@H]1C(=O)Nc1ccc(F)c[n+]1[O-]`, the MIC in assay [1] is 10.3 µg/mL (≈ 23.5 µM); in assay [3], 1.42 ± 0.2 µg/mL (≈ 3.24 µM); in assay [5], 10.3 µg/mL (≈ 23.4 µM). Besides, the values for the IC50 in assay [2], in assay [4] and in assay [6] were 1380 ± 780 pM, 230 ± 40 pM and 1780 pM, respectively.

Take `CCCC[C@H](CN(O)C=O)C(=O)N1CCC[C@H]1C(=O)Nc1ccc(F)c[n+]1[O-]` [reference compound]: the MIC in assay [1] is 5.8 µg/mL (≈ 14.6 µM); in assay [3] it was 0.45 ± 0.07 µg/mL (≈ 1.14 µM); in assay [5], 6.44 µg/mL (≈ 16.2 µM). In addition, the IC50 in assay [2] was 1280 pM; in assay [4], 310 ± 30 pM; in assay [6] it was 1350 pM.

Consider `O=CN(O)C[C@@H](CC1CCCC1)C(=O)N1C[C@H](F)C[C@H]1C(=O)Nc1cncc[n+]1[O-]`, for which the minimal inhibitory concentration (MIC) was 2.67 µg/mL (≈ 6.31 µM) in assay [1], 0.29 ± 0.11 µg/mL (≈ 0.685 µM) in assay [3] and 1 µg/mL (≈ 2.36 µM) in assay [5]. Also, the IC50 was 910 pM in assay [2], 370 ± 20 pM in assay [4] and 2050 pM in assay [6].

As for `CCCC[C@H](CN(O)C=O)C(=O)N1C[C@H](C(C)C)C[C@H]1C(=O)Nc1ccc(F)c[n+]1[O-]`, the MIC was 6.3 µg/mL (≈ 14.4 µM) in assay [1], 0.64 ± 0.09 µg/mL (≈ 1.46 µM) in assay [3] and 5.14 µg/mL (≈ 11.7 µM) in assay [5]. In addition, the IC50 in assay [2] is 1190 pM; in assay [4] it was 310 ± 30 pM; in assay [6], 1560 pM.

As for `CCCC[C@H](CN(O)C=O)C(=O)N1C[C@H](C(C)C)C[C@H]1C(=O)Nc1ccc(F)cn1`, the MIC in assay [1] was 1.43 µg/mL (≈ 3.38 µM); in assay [3], 0.71 ± 0.1 µg/mL (≈ 1.68 µM); in assay [5] it was 1.07 µg/mL (≈ 2.53 µM). The IC50 in assay [2] is 250 pM; in assay [4], 270 ± 30 pM; in assay [6] it was 700 pM.
